# Results: ChEMBL document CHEMBL5518207, “Structure Guided Discovery of Novel Pan Metallo-β-Lactamase Inhibitors with Improved Gram-Negative Bacterial Cell Penetration” (J Med Chem, 2024)
# Experiments:
# [1] = Cmax in rat at 1 mg/kg, iv measured after 24 hrs by HPLC-MS analysis; format: ADME, organism-based; conditions: in vivo
# Cytochrome P450 3A4 = Cytochrome P450 3A4 (Homo sapiens, UniProt P08684); assay: Inhibition of CYP3A4 (unknown origin); format: ADME
# [2] = Unbound fraction in Beagle dog plasma at 1 mg/kg, iv measured after 24 hrs by HPLC-MS analysis; format: ADME, organism-based, Canis lupus familiaris
# [3] = AUC in Beagle dog at 1 mg/kg, iv measured after 24 hrs by HPLC-MS analysis; format: ADME, organism-based, Canis lupus familiaris; conditions: in vivo
# [4] = target: Sodium channel protein type 5 subunit alpha (Homo sapiens, UniProt Q14524); assay: Inhibition of NaV 1.5 channel (unknown origin)
# Klebsiella pneumoniae = assay: Potentiation of imipenem induced antibacterial activity against Klebsiella pneumoniae IHMA599644 harbouring VIM-1 incubated for 18 to 22 hrs imipenem by spectrophotometer based analysis; format: functional; conditions: time 18-22 hrs
# [5] = Inhibition of GST tagged VIM-1 (unknown origin) expressed in Escherichia coli BL21 Star (DE3) competent cells using CCF2-FA as substrate incubated for 2 hrs by fluorescence based analysis
# [6] = Inhibition of GST tagged NDM-1 (unknown origin) expressed in Escherichia coli BL21 Star (DE3) competent cells using CCF2-FA as substrate incubated for 2 hrs by fluorescence based analysis
# Cytochrome P450 2C9 = Cytochrome P450 2C9 (Homo sapiens, UniProt P11712); assay: Inhibition of CYP2C9 (unknown origin); format: ADME
# Sequence of Cytochrome P450 2C9 (P11712 whole entry): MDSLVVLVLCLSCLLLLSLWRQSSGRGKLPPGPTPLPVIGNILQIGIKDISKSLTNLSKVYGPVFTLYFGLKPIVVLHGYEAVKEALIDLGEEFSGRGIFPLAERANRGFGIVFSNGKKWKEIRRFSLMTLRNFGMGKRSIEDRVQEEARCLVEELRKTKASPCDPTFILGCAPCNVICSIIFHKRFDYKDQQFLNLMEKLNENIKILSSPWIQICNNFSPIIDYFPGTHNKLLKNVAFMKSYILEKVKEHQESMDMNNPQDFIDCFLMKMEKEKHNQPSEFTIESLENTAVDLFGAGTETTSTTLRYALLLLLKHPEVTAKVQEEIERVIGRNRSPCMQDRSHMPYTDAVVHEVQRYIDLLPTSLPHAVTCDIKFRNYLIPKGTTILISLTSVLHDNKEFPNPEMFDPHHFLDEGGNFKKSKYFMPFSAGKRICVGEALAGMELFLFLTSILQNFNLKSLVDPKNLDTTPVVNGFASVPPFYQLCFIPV
# [7] = AUC in rat at 1 mg/kg, iv measured after 24 hrs by HPLC-MS analysis; format: ADME, organism-based; conditions: in vivo
# [8] = Volume of distribution at steady state in rat at 1 mg/kg, iv measured after 24 hrs by HPLC-MS analysis; format: ADME, organism-based; conditions: in vivo, read-out: Vdss
# Cytochrome P450 2C8 = target: T1, Cytochrome P450 2C8 (Homo sapiens, UniProt P10632); assay: Inhibition of CYP2C8 (unknown origin); format: ADME
# T1 sequence (P10632 whole entry): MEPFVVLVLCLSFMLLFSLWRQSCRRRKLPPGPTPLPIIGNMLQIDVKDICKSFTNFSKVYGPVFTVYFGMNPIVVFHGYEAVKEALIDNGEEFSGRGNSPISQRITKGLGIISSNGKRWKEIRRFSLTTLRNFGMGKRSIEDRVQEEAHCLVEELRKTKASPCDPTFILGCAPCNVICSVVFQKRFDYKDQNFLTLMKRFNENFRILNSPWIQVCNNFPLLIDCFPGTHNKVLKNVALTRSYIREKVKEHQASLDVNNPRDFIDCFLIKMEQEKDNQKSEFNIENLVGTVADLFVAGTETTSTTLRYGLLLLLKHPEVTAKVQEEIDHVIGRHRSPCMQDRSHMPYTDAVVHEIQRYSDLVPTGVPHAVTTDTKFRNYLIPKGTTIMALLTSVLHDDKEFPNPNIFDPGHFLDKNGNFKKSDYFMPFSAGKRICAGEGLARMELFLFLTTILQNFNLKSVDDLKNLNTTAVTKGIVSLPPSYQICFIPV
# [9] = Volume of distribution at steady state in Beagle dog at 1 mg/kg, iv measured after 24 hrs by HPLC-MS analysis; format: ADME, organism-based, Canis lupus familiaris; conditions: in vivo, read-out: Vdss
# [10] = Clearance in Beagle dog at 1 mg/kg, iv measured after 24 hrs by HPLC-MS analysis; format: ADME, organism-based, Canis lupus familiaris; conditions: in vivo
# [11] = Inhibition of GST tagged IMP-1 (unknown origin) expressed in Escherichia coli BL21 Star (DE3) competent cells using CCF2-FA as substrate incubated for 2 hrs by fluorescence based analysis
# Pseudomonas aeruginosa [12] = assay: Efflux ratio of MITC95 for potentiation of imipenem induced antibacterial activity against isogenic efflux wild type Pseudomonas aeruginosa MB9798 harbouring IMP to MITC95 for potentiation of imipenem induced antibacterial activity against isogenic efflux deleted mutant Pseudomonas aeruginosa MB9799 harbouring IMP; format: functional
# Pseudomonas aeruginosa [13] = assay: Potentiation of imipenem induced antibacterial activity against isogenic efflux deleted mutant Pseudomonas aeruginosa MB9799 harbouring IMP incubated for 18 to 22 hrs imipenem and beta lactamase inhibitor by spectrophotometer based analysis; format: functional; conditions: time 18-22 hrs
# [14] = target: Voltage-gated potassium channel, IKs; KCNQ1(Kv7.1)/KCNE1(MinK) (Homo sapiens, UniProt P15382+P51787); assay: Inhibition of KCNQ1/KCNE1 (unknown origin); format: protein-complex assay
# Sequence of Voltage-gated potassium channel, IKs; KCNQ1(Kv7.1)/KCNE1(MinK) (P51787 whole entry): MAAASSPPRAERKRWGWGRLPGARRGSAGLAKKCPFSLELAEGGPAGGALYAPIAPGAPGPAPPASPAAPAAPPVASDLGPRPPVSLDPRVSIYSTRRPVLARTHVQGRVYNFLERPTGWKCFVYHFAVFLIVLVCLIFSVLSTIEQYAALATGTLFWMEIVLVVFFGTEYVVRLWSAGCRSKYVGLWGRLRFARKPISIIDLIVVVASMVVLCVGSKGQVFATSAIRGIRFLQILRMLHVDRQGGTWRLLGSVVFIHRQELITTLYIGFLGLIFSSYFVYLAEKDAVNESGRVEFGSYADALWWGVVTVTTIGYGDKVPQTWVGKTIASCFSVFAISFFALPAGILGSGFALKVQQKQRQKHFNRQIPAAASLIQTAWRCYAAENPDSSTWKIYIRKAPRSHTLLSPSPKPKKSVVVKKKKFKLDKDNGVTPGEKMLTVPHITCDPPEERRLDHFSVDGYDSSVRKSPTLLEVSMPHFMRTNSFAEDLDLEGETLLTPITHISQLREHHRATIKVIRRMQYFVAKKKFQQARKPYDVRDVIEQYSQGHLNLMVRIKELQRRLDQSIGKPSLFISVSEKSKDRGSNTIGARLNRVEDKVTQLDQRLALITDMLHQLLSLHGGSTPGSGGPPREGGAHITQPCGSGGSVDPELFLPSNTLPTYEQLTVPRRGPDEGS
# Cytochrome P450 2D6 = Cytochrome P450 2D6 (Homo sapiens, UniProt P10635); assay: Inhibition of CYP2D6 (unknown origin); format: ADME
# Sequence of Cytochrome P450 2D6 (P10635 whole entry): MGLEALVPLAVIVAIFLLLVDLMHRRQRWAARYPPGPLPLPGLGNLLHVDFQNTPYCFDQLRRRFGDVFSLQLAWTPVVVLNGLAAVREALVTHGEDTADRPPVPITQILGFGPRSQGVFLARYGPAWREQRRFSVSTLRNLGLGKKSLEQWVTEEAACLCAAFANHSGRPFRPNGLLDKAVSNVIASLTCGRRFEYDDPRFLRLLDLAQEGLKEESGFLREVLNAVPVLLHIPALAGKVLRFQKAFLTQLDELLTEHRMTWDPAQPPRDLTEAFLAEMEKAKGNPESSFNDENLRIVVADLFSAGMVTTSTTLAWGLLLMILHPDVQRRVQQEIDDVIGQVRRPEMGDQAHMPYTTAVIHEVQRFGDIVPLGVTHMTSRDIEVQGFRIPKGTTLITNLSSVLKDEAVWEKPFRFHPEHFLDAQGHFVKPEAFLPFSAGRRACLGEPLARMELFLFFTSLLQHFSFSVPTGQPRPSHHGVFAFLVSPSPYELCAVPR
# Pseudomonas aeruginosa [15] = assay: Potentiation of imipenem induced antibacterial activity against isogenic efflux wild type Pseudomonas aeruginosa MB9798 harbouring IMP incubated for 18 to 22 hrs imipenem and beta lactamase inhibitor by spectrophotometer based analysis; format: functional; conditions: time 18-22 hrs
# [16] = MRT in Beagle dog at 1 mg/kg, iv measured after 24 hrs by HPLC-MS analysis; format: ADME, organism-based, Canis lupus familiaris; conditions: in vivo
# Escherichia coli = assay: Potentiation of imipenem induced antibacterial activity against Escherichia coli CLB30005 harbouring NDM-1 incubated for 18 to 22 hrs in presence of imipenem by spectrophotometer based analysis; format: functional; conditions: time 18-22 hrs
# [17] = Toxicity in Beagle dog assessed as severe adverse effect at 1 mg/kg, iv measured after 24 hrs by HPLC-MS analysis; format: organism-based, Canis lupus familiaris; conditions: in vivo
# [18] = target: Voltage-gated inwardly rectifying potassium channel KCNH2 (Homo sapiens, UniProt Q12809); assay: Inhibition of human ERG; format: toxicity
# [19] = Unbound fraction in rat plasma at 1 mg/kg, iv measured after 24 hrs by HPLC-MS analysis; format: ADME, organism-based
# [20] = MRT in rat at 1 mg/kg, iv measured after 24 hrs by HPLC-MS analysis; format: ADME, organism-based; conditions: in vivo
# Serratia marcescens = assay: Potentiation of imipenem induced antibacterial activity against Serratia marcescens CL5741 harbouring IMP-1 incubated for 18 to 22 hrs imipenem by spectrophotometer based analysis; format: functional; conditions: time 18-22 hrs
# [21] = Cmax in Beagle dog at 1 mg/kg, iv measured after 24 hrs by HPLC-MS analysis; format: ADME, organism-based, Canis lupus familiaris; conditions: in vivo
# [22] = Clearance in rat at 1 mg/kg, iv measured after 24 hrs by HPLC-MS analysis; format: ADME, organism-based; conditions: in vivo
# [23] = Inhibition of GST tagged VIM-2 (unknown origin) expressed in Escherichia coli BL21 Star (DE3) competent cells using CCF2-FA as substrate incubated for 2 hrs by fluorescence based analysis
# [24] = target: Voltage-dependent L-type calcium channel subunit alpha-1C (Homo sapiens, UniProt Q13936); assay: Inhibition of Cav1.2 channel (unknown origin)
# Sequence of Voltage-dependent L-type calcium channel subunit alpha-1C (Q13936 whole entry): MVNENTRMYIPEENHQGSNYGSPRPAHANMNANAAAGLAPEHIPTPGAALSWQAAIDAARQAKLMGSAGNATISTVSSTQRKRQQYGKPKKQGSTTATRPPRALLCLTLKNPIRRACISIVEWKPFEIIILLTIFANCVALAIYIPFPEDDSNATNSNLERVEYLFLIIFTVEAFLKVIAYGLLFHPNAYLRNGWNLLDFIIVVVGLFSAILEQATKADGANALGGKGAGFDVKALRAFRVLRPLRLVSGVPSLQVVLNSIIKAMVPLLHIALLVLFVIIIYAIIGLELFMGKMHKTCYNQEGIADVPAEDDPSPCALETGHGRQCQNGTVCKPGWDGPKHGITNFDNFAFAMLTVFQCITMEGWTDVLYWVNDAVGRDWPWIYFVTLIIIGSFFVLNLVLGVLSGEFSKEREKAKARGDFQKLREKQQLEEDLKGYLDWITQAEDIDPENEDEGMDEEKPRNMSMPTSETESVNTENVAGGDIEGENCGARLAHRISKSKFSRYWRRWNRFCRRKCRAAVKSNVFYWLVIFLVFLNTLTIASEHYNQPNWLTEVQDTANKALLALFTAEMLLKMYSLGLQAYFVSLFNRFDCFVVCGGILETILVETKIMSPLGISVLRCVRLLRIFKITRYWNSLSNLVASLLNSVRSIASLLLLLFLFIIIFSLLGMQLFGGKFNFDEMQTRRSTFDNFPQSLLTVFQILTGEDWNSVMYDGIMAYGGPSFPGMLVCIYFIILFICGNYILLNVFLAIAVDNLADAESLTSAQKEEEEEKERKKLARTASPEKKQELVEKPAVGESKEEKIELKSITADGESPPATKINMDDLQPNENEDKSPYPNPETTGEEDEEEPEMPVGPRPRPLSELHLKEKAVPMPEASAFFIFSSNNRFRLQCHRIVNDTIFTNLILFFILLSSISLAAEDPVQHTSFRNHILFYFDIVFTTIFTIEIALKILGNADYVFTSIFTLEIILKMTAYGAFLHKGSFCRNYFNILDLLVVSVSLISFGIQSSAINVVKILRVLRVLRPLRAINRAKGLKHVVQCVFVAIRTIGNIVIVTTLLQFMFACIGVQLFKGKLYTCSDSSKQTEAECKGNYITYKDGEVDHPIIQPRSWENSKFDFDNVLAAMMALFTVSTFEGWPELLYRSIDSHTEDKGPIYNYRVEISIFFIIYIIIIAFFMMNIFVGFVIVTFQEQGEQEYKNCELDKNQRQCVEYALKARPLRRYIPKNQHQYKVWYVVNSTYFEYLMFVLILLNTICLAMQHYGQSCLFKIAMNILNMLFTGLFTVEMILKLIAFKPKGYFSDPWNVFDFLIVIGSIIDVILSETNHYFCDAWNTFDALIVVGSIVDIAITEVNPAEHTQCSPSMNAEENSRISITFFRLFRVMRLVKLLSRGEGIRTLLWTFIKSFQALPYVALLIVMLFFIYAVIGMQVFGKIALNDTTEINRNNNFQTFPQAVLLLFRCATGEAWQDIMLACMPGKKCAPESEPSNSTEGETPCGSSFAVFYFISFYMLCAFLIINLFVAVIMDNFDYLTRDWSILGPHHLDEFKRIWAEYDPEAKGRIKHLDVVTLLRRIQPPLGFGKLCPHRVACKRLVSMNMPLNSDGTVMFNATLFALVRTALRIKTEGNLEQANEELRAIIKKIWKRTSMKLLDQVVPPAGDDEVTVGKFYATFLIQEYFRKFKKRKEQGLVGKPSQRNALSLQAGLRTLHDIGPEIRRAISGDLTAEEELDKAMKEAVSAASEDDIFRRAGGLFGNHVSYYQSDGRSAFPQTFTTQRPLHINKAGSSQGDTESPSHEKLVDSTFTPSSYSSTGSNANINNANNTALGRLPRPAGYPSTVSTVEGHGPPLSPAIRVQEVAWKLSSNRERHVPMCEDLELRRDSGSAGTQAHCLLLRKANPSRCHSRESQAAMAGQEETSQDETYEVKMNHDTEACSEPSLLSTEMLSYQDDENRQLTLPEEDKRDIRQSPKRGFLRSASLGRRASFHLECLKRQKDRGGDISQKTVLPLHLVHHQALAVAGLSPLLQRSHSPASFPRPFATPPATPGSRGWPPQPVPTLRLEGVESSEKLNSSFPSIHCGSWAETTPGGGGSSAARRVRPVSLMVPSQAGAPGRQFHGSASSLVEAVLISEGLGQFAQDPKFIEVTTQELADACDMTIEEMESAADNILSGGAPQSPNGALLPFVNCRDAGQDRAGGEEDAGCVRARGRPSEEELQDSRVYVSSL
# [25] = Cmax in Wistar rat at 90 mg/kg, iv measured after 24 hrs by HPLC-MS analysis; format: ADME, organism-based; conditions: in vivo
# [26] = Toxicity in Beagle dog assessed as increase in histamine level in plasma at 1 mg/kg, iv measured upto 24 hrs by HPLC-MS analysis; format: organism-based, Canis lupus familiaris; conditions: in vivo
# [27] = Toxicity in Beagle dog assessed as appearance of watery eyes at 1 mg/kg, iv measured after 24 hrs by HPLC-MS analysis; format: organism-based, Canis lupus familiaris; conditions: in vivo
# [28] = Volume of distribution at steady state in rat at 5 mg/kg, iv measured after 24 hrs by HPLC-MS analysis; format: ADME, organism-based; conditions: in vivo, read-out: Vdss
# [29] = AUC in rat at 5 mg/kg, iv measured after 24 hrs by HPLC-MS analysis; format: ADME, organism-based; conditions: in vivo
# [30] = MRT in rat at 5 mg/kg, iv measured after 24 hrs by HPLC-MS analysis; format: ADME, organism-based; conditions: in vivo
# [31] = Unbound fraction in rat plasma at 5 mg/kg, iv measured after 24 hrs by HPLC-MS analysis; format: ADME, organism-based
# [32] = Toxicity in Beagle dog assessed as decrease in activity at 1 mg/kg, iv measured after 24 hrs by HPLC-MS analysis; format: organism-based, Canis lupus familiaris; conditions: in vivo
# [33] = Toxicity in Beagle dog assessed as increase in respiration at 1 mg/kg, iv measured after 24 hrs by HPLC-MS analysis; format: organism-based, Canis lupus familiaris; conditions: in vivo
# [34] = Toxicity in Beagle dog assessed as vocalization at 1 mg/kg, iv measured after 24 hrs by HPLC-MS analysis; format: organism-based, Canis lupus familiaris; conditions: in vivo
# [35] = Cmax in rat at 5 mg/kg, iv measured after 24 hrs by HPLC-MS analysis; format: ADME, organism-based; conditions: in vivo
# [36] = Toxicity in Beagle dog assessed as emesis at 1 mg/kg, iv measured after 24 hrs by HPLC-MS analysis; format: organism-based, Canis lupus familiaris; conditions: in vivo
# [37] = Clearance in rat at 5 mg/kg, iv measured after 24 hrs by HPLC-MS analysis; format: ADME, organism-based; conditions: in vivo
# Sequence of Cytochrome P450 3A4 (P08684 whole entry): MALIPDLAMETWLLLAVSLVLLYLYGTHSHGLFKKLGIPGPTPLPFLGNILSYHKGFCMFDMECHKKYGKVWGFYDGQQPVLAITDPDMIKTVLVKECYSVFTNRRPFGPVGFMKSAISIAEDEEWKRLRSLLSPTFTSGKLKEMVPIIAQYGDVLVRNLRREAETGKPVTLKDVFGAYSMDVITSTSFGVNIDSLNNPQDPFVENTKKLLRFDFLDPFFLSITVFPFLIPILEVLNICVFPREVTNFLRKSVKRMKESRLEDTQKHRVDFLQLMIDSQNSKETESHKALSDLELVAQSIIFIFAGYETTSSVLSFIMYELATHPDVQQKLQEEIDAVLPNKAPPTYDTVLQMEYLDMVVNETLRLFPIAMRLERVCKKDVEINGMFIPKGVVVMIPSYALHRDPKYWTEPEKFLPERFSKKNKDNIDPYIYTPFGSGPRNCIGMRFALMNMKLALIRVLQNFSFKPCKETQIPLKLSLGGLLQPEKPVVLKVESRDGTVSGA
SMILES,Cmax [1],fraction unbound at 24 h [2],AUC at 24 h [3],MITC95 (Klebsiella pneumoniae),IC50 [5],IC50 [6],AUC at 24 h [7],Vd [8],Vd [9],clearance [10],IC50 [11],Ratio (Pseudomonas aeruginosa [12]),MITC95 (Pseudomonas aeruginosa [13]),MITC95 (Pseudomonas aeruginosa [15]),MITC95 (Escherichia coli),fraction unbound at 24 h [19],MRT [20],MITC95 (Serratia marcescens),Cmax [21],clearance [22],other results
Nc1nc2cccc(-c3ccc(C(F)(F)F)c(S(N)(=O)=O)c3-c3nnn[nH]3)c2[nH]1,10.8 µM,0.26,4.34 µM·h,1.6 µM,0.3 nM,0.1 nM,4.1 µM·h,0.38 L/kg,0.94 L/kg,9.1 mL/min/kg,3.8 nM,32,0.78 µM,25 µM,0.4 µM,0.065,0.66 h,0.8 µM,9 µM,9.6 mL/min/kg,IC50 (Cytochrome P450 3A4): > 50000 nM; IC50 [4]: > 30000 nM; IC50 (Cytochrome P450 2C9): > 50000 nM; IC50 (Cytochrome P450 2C8): > 50000 nM; IC50 [14]: > 30000 nM; IC50 (Cytochrome P450 2D6): > 50000 nM; MRT [16]: 1.72 h; Activity [17]: Non-Toxic; IC50 [18]: > 30000 nM; IC50 [23]: 1.3 nM; IC50 [24]: > 30000 nM
Nc1ccc(-c2ccc(CC3CCNCC3)c(S(N)(=O)=O)c2-c2nn[nH]n2)cn1,16.3 µM,–,–,4.2 µM,25 nM,12 nM,11.7 µM·h,0.25 L/kg,–,–,164 nM,4,12.5 µM,50 µM,0.6 µM,0.47,1.21 h,6.3 µM,–,3.5 mL/min/kg,Cmax [25]: 791 µM; IC50 [23]: 140 nM
NS(=O)(=O)c1c(C[C@H]2CC[C@H](N)CC2)ccc(-c2ccc(C3CNC3)cc2)c1-c1nn[nH]n1,–,–,–,1.6 µM,1 nM,4 nM,–,–,–,–,43 nM,11,1.6 µM,18 µM,0.8 µM,–,–,3.1 µM,9.3 µM,–,Activity [26]: Toxic; Activity [27]: Toxic; Vd [28]: 0.39 L/kg; AUC at 24 h [29]: 83.7 µM·h; MRT [30]: 3.13 h; fraction unbound at 24 h [31]: 0.42; Activity [32]: Toxic; Activity [33]: Toxic; Activity [34]: Toxic; Cmax [35]: 84.3 µM; Activity [36]: Toxic; clearance [37]: 2.2 mL/min/kg
NS(=O)(=O)c1c(C(F)(F)F)ccc([C@H]2CC[C@H](N)CC2)c1-c1nnn[nH]1,12.7 µM,0.76,16.7 µM·h,0.8 µM,0.7 nM,13.5 nM,5 µM·h,0.45 L/kg,0.31 L/kg,2.6 mL/min/kg,39.4 nM,256,0.78 µM,200 µM,0.4 µM,0.78,0.87 h,0.8 µM,15 µM,8.7 mL/min/kg,MRT [16]: 2.03 h; Activity [17]: Non-Toxic
